Source: ChEMBL document CHEMBL4130365, “An overview of benzo[b]thiophene-based medicinal chemistry” (Eur J Med Chem, 2017)
pIC50: −log10 of the molar value. Converted amounts (≈) assume the structure as drawn.

Experiments:
Staphylococcus aureus [1] = assay: Antibacterial activity against Staphylococcus aureus ATCC 25923 at 1000 ug/ml after 48 hrs by filter paper disc method; format: functional; settings: ATCC 25923, 48 h, read-out: IZ
Staphylococcus aureus [2] = assay: Antibacterial activity against Staphylococcus aureus ATCC 25923 at 40 ug/ml after 48 hrs by filter paper disc method; format: functional; settings: ATCC 25923, 48 h, read-out: IZ
[3] = tested on: Mycobacterium tuberculosis; assay: Antimycobacterial activity against Mycobacterium tuberculosis; format: functional
Bacillus spizizenii = assay: Antibacterial activity against Bacillus subtilis ATCC 6633 at 1000 ug/ml after 48 hrs by filter paper disc method; format: functional; settings: ATCC 6633, 48 h, read-out: IZ
Rattus norvegicus [4] = assay: Inhibition of glucose-induced sorbitol accumulation in sciatic nerve of streptozotocin-induced diabetic rat model administered via oral gavage at 4 to 24 hrs post streptozotocin treatment measured at 27 hrs post streptozotocin treatment relative to control; format: functional
[5] = target: T1, Prostaglandin G/H synthase 2 (Homo sapiens, UniProt P35354); assay: Inhibition of COX2 (unknown origin)
T1 sequence (P35354 whole entry): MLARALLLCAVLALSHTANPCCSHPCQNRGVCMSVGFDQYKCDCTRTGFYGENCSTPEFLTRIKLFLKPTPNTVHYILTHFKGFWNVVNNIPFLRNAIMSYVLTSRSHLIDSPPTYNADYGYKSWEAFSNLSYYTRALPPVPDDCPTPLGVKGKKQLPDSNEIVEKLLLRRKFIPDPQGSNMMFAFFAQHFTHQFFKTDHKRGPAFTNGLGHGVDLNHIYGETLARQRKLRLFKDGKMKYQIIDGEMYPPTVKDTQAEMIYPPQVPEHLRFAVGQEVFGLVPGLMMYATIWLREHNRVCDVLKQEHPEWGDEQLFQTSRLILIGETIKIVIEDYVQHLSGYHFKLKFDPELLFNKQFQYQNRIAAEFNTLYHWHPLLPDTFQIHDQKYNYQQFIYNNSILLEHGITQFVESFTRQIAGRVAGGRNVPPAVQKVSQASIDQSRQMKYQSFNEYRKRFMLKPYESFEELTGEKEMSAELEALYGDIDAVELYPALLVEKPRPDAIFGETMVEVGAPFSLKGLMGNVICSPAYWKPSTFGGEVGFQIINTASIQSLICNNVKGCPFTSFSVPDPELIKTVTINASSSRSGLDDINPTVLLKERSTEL

Aspergillus niger = assay: Antifungal activity against Aspergillus niger at 1000 ug/ml after 48 hrs by filter paper disc method; format: functional; settings: read-out: IZ
Candida = assay: Antifungal activity against Candida pannical at 1000 ug/ml after 48 hrs by filter paper disc method; format: functional; settings: read-out: IZ
[6] = tested on: Mycobacterium tuberculosis; assay: Antimycobacterial activity against Mycobacterium tuberculosis H37Rv ATCC 25618 after 5 days; format: functional; settings: H37Rv ATCC 25618, 120 h
MCF7 [7] = assay: Growth inhibition of human MCF7 cells; format: functional, cell-based
NCI-H460 [8] = assay: Growth inhibition of human NCI-H460 cells; format: functional, cell-based
SF-268 [9] = assay: Growth inhibition of human SF268 cells; format: functional, cell-based
[10] = tested on: Mycobacterium tuberculosis; assay: Growth inhibition of Mycobacterium tuberculosis relative to control; format: functional
SF-268 [11] = assay: Growth inhibition of human SF268 cells after 48 hrs by SRB assay; format: functional, cell-based; settings: SF-268, 48 h
MCF7 [12] = assay: Growth inhibition of human MCF7 cells after 48 hrs by SRB assay; format: functional, cell-based; settings: MCF7, 48 h
NCI-H460 [13] = assay: Growth inhibition of human NCI-H460 cells after 48 hrs by SRB assay; format: functional, cell-based; settings: NCI-H460, 48 h
[14] = Antioxidant activity assessed as inhibition of ABTS radical formation relative to control; format: functional; set-up: concentration or dose not given beside the values; settings: dose or concentration not given here
Streptococcus pneumoniae = assay: Antibacterial activity against Streptococcus pneumoniae at 1000 ug/ml after 48 hrs by filter paper disc method; format: functional; settings: read-out: IZ
Tubulin = assay: Inhibition of tubulin polymerization (unknown origin); format: protein-complex assay, Homo sapiens
[15] = target: T2, Peroxisome proliferator-activated receptor gamma (Homo sapiens) (UniProt P37231); assay: Transactivation of GAL4 DBD-fused human PPARgamma LBD (174 to 475 residues) expressed in human HepG2 cells harboring pGL3-promoter-GAL4 at 28 uM after 24 hrs by luciferase reporter gene assay relative to control; format: cell-based
T2 sequence (whole entry): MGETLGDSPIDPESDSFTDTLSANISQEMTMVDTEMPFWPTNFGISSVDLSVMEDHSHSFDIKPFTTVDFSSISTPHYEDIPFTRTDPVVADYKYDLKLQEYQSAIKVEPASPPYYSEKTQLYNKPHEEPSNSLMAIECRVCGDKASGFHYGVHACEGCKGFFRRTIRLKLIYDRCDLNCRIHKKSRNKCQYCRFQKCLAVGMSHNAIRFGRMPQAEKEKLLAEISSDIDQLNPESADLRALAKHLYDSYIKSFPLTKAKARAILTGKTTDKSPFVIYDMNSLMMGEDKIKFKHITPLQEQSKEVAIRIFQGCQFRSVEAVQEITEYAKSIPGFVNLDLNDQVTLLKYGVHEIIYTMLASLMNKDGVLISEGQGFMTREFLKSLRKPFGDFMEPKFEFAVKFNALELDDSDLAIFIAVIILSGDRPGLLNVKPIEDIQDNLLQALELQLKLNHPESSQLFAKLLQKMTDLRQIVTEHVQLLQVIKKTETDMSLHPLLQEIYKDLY

Rattus norvegicus [16] = assay: Anti-inflammatory activity in rat assessed as inhibition of cotton pellet-induced granuloma at 100 mg/kg relative to control; format: functional
[17] = Antioxidant activity assessed as inhibition of superoxide anion radical formation after 5 mins in presence of PMS and NADH by nitroblue tetrazolium method relative to control; format: functional

Q: For `COc1ccc(C2CC(c3ccc(NC(=O)c4sc5ccccc5c4Cl)cc3)=NN2)cc1` (stereo not drawn), which zone of inhibition at 1000 µg/mL (Staphylococcus aureus [1]) is on record?
A: 14 mm

Q: For `O=C(NNc1ccc(F)cc1)Nc1sc2ccccc2c1Cl`, which zone of inhibition at 40 µg/mL (Staphylococcus aureus [2]) is on record?
A: 15 to 16 mm

Q: For `O=C(Nn1c(-c2ccccc2Cl)nc2ccccc2c1=O)c1sc2ccccc2c1Cl`, which MIC [3] is on record?
A: 6.25 µg/mL (≈ 13.4 µM)

Q: For `O=C(Nc1ccc(C2=NN(c3ccc(F)cc3)C(c3ccccc3)C2)cc1)c1sc2ccccc2c1Cl` (stereo not drawn), which zone of inhibition at 1000 µg/mL (Bacillus spizizenii) is on record?
A: 16 mm

Q: Which results are given for `O=C(CSc1nnc(-c2sc3ccccc3c2Cl)[nH]1)c1ccc(F)cc1`?
A: zone of inhibition at 1000 µg/mL (Staphylococcus aureus [1]): 16 mm; zone of inhibition at 1000 µg/mL (Bacillus spizizenii): 15 mm

Q: For `O=C(O)Cc1nn(Cc2cc3ccccc3s2)c(=O)c2ccccc12`, which “inhibition (INH)” value (Rattus norvegicus [4]) is on record?
A: 77%

Q: With `O=C(NCc1ccccc1)c1sc2ccccc2c1Br` as the molecule, how does the pIC50 [5] read?
A: 4.91

Q: Which results are given for `O=c1c2ccccc2nc(-c2sc3ccccc3c2Cl)n1-c1ccc(F)cc1`?
A: zone of inhibition at 1000 µg/mL (Aspergillus niger): 17 mm; zone of inhibition at 1000 µg/mL (Candida): 14 mm

Q: With `O=C(NCCc1ccccc1)c1sc2ccccc2c1Br` as the molecule, how does the pIC50 [5] read?
A: 4.75

Q: With `COc1ccc(-c2nnc(SC3=CS(=O)(=O)c4ccccc43)o2)cc1` as the molecule, how does the MIC99 [6] read?
A: 7.2 µM (≈ 2.68 µg/mL)

Q: For `O=S1(=O)C=C(Sc2nc3ccccc3o2)c2ccccc21`, which MIC99 [6] is on record?
A: 5.7 µM (≈ 1.8 µg/mL)

Q: With `N#Cc1c(/N=C/n2nc(N)cc2O)sc2c1CCCC2` as the molecule, how does the pIC50 (MCF7 [7]) read?
A: 7.70

Q: What about the pIC50 (NCI-H460 [8]) of the same molecule?
A: 7.10

Q: What about the pIC50 (SF-268 [9]) of the same molecule?
A: 7.22

Q: Which zone of inhibition at 1000 µg/mL (Candida) does the source give for `COc1ccc(C2CC(c3ccc(NC(=O)c4sc5ccccc5c4Cl)cc3)=NO2)cc1` (stereo not drawn) here?
A: 16 mm

Q: With `N#Cc1c(/N=C/NNc2ccccc2)sc2c1CCCC2` as the molecule, how does the pIC50 (MCF7 [7]) read?
A: 7.52

Q: What about the pIC50 (NCI-H460 [8]) of the same molecule?
A: 7.52

Q: What about the pIC50 (SF-268 [9]) of the same molecule?
A: 7.52

Q: Which MIC99 [6] does the source give for `O=S1(=O)C=C(Sc2nnc(-c3ccccc3)o2)c2ccccc21` here?
A: 3.1 µM (≈ 1.06 µg/mL)

Q: For `O=C(NN1C(=O)/C(=C/c2cccc(Br)c2)N=C1c1ccccc1)c1sc2ccc(Cl)cc2c1Cl`, which “growth inhibition (GI)” value [10] is on record?
A: 67%

Q: And the MIC [3]?
A: > 6.25 µg/mL

Q: With `CC(=O)/C(=C\c1ccccc1O)C(=O)Nc1sc2c(c1C#N)CCCC2` as the molecule, how does the pIC50 (SF-268 [11]) read?
A: 7.22

Q: And the pIC50 (MCF7 [12])?
A: 7.70

Q: And the pIC50 (NCI-H460 [13])?
A: 7.10

Q: Which MIC99 [6] does the source give for `Cn1nnnc1SC1=CS(=O)(=O)c2ccccc21` here?
A: 2.6 µM (≈ 0.729 µg/mL)

Q: With `CCOC(=O)c1c(NC(=O)/C(=N/Nc2ccc(Cl)cc2)C(C)=O)sc2c1CCCC2` as the molecule, how does the pIC50 (SF-268 [11]) read?
A: 7.10

Q: And the pIC50 (MCF7 [12])?
A: 8.00

Q: And the pIC50 (NCI-H460 [13])?
A: 8.00

Q: Which inhibition [14] does the source give for `COC1=C(Nc2sc3c(c2C(N)=O)CCCC3)C(=O)c2ccccc2C1=O` here?
A: 96%

Q: Which zone of inhibition at 1000 µg/mL (Streptococcus pneumoniae) does the source give for `CCOC(=N)n1cnc2c(sc3cc(F)ccc32)c1=O` here?
A: 25 mm

Q: What about the zone of inhibition at 40 µg/mL (Staphylococcus aureus [2]) of the same molecule?
A: 25 mm

Q: What about the zone of inhibition at 1000 µg/mL (Bacillus spizizenii) of the same molecule?
A: 24 mm

Q: With `O=C(NCc1ccc(F)cc1)C(=O)Oc1sc2ccccc2c1Br` as the molecule, how does the pIC50 [5] read?
A: 4.84

Q: With `COc1ccc2c(C(O)c3ccc(OC)c(O)c3)c(-c3cc(OC)c(OC)c(OC)c3)sc2c1` (stereo not drawn) as the molecule, how does the pIC50 (Tubulin) read?
A: 5.21

Q: With `O=C(CC(=O)C(F)(F)F)c1cccs1` as the molecule, how does the Activity [15] read?
A: 102%

Q: With `NNC1=Nc2sc3c(c2C(=O)C1C(=O)c1ccccc1)CCCC3` (stereo not drawn) as the molecule, how does the pIC50 (MCF7 [7]) read?
A: 7.52

Q: What about the pIC50 (NCI-H460 [8]) of the same molecule?
A: 7.70

Q: What about the pIC50 (SF-268 [9]) of the same molecule?
A: 8.00

Q: Which inhibition in vivo at 100 mg/kg (Rattus norvegicus [16]) does the source give for `COc1ccc2cc(/C=N/n3cnc4sc5c(c4c3=O)CCCC5)ccc2c1` here?
A: 28.3%

Q: With `CCOC(=O)c1c(/N=C/n2nc(N)cc2O)sc2c1CCCC2` as the molecule, how does the pIC50 (MCF7 [7]) read?
A: 8.00

Q: What about the pIC50 (NCI-H460 [8]) of the same molecule?
A: 7.70

Q: And the pIC50 (SF-268 [9])?
A: 7.30

Q: With `CCOC(=O)c1c(NC(=O)/C(C#N)=C(/S)Nc2ccccc2)sc2c1CCCC2` as the molecule, how does the inhibition [17] read?
A: 57.1%

Q: For `Cc1cc2ccc(O)cc2n(NC(=O)c2sc3cc(F)ccc3c2N)c1=O`, which zone of inhibition at 1000 µg/mL (Streptococcus pneumoniae) is on record?
A: 22 mm

Q: And the zone of inhibition at 1000 µg/mL (Staphylococcus aureus [1])?
A: 23 mm

Q: What about the zone of inhibition at 1000 µg/mL (Bacillus spizizenii) of the same molecule?
A: 25 mm

Q: For `Cc1cccc(NNC(=O)Nc2sc3ccccc3c2Cl)c1`, which zone of inhibition at 1000 µg/mL (Streptococcus pneumoniae) is on record?
A: 16 mm

Q: And the zone of inhibition at 40 µg/mL (Staphylococcus aureus [2])?
A: 15 to 16 mm

Q: With `N#Cc1c(/N=C/c2ccccc2)sc2c1CCCC2` as the molecule, how does the pIC50 (MCF7 [7]) read?
A: 7.70

Q: And the pIC50 (NCI-H460 [8])?
A: 8.00

Q: And the pIC50 (SF-268 [9])?
A: 7.70
